Publication PMC3025356, “Mechanism of the Ca^2+-Dependent Interaction between S100A4 and Tail Fragments of Nonmuscle Myosin Heavy Chain IIA” (Journal of Molecular Biology, 2011)
Where two headings read alike, the source gives them in different places.

Key:
[1] = Stopped-flow tyrosine fluorescence, Ca^2+ dissociation from S100A4 constructs; format: binding
Procedure: Stopped-flow measurements were carried out using an SX18-MV apparatus (Applied Photophysics Ltd., Leatherhead, UK) with a dead time of 1.5 ms.[40] Records were generally captured on a logarithmic time base. Absorption (turbidity) measurements were usually recorded using a 10-mm pathlength, while fluorescence was recorded with a 2-mm pathlength for excitation and emission. The stated concentrations of components refer to the reaction chamber after mixing, unless otherwise indicated. Tyrosine fluorescence was excited at 280 nm, and the emission was collected through a UG11 bandpass filter plus a 305-nm longpass filter.[18] Fluorescein fluorescence was excited at 480 nm, and the emission was detected through a 515-nm longpass filter. Quin-2 fluorescence was measured by excitation at 336 nm, and emission was collected with a 455-nm longpass filter. For simultaneous recording of light scatter, a second channel was monitored through a UG11 filter. Rate constants were obtained by fitting to single-exponential or double-exponential functions using Kaleidagraph (Synergy Software) or Applied Photophysics Pro-Data software. Modeling of kinetic schemes was performed using Berkeley Madonna software.
Dissociation of Ca2+ from wild type S100A4 (black), Y19F mutant (blue) and Y75F mutant (red) monitored by tyrosine fluorescence. 13 M of each S100A4 construct plus 100 µM Ca2+ was mixed with 200 µM EGTA (reaction chamber concentrations) and the tyrosine fluorescence monitored. The buffer was 20 mM NaCl, 10 mM HEPES, 2 mM DTT at pH 7.5 and 20 °C. Fits to a single exponential function yielded rate constants of 20 s-1, 113 s-1 and 45 s-1 for wild-type, Y19F mutant and Y75F mutant respectively. (d) Dissociation of Ca2+ from wild type S100A4 (black), E33Q mutant (blue) and D63N mutant (red) monitored by tyrosine fluorescence. 13 M of each S100A4 construct plus 15 M Ca2+ was mixed with 200 M EGTA (reaction chamber concentrations) and the tyrosine fluorescence monitored. Fits to a single exponential function yielded rate constants of 22 s-1 and 49 s-1 for wild-type and E33Q construct respectively, while that […]
The records for the mutants were vertically offset for clarity in both […]

[2] = 37 °C, 20 mM KCl, cited from earlier work
Procedure: At 10 °C, the first site became associated with negative enthalpy but retained a ...

[3] = target: NM-MHC IIA rods; details: 20 mM NaCl; cited from earlier work
Source text: Over the last two decades, there has been much interest in the role of the S100 Ca^2^+-binding protein family in the regulation of cellular events.[1,2] Identifying the specific targets of each of the 24 members[3] and deducing their mechanisms of action in vitro and in vivo remain to be a challenge. This is exemplified by S100A4 (also known as Mts1, metastasin, p9Ka, pEL98, calvasculin, and Fsp-1), which has been implicated in a wide range of cellular events and numerous diseases and binds to several different targets in vitro.[4–6] In particular, following early work,[7–9] there have been ma ...

Substance: S100A4: recombinant S100A4 expressed in E. coli BL21(DE3)
- Ca^2+ dissociation rate constant (tyrosine) ([1]; 13 μM S100A4 + 15 μM Ca^2+ mixed with 200 μM EGTA): 22 s^− 1
- Ca^2+ dissociation rate constant (tyrosine) ([1]; 13 μM S100A4 + 100 μM Ca^2+ mixed with 200 μM EGTA, 20 mM NaCl, 10 mM Hepes, 2 mM DTT, pH 7.5, 20 °C): 20 s^− 1
- Kd ([2]; read-out: Kd, site with negative enthalpy): 54 µM
- Kd ([2]; read-out: Kd, site with positive enthalpy): 3.3 µM
- binding to rods [3]: micromolar affinity
